Reference: patent US20220088016A1, “CANCER TREATMENT USING MULTI-TARGETED KINASE INHIBITOR IN COMBINATION OF PROTEIN KINASE BIOMARKERS” (ZHEJIANG CROWNMAB BIOTECH CO. LTD., priority 2019, published 2022)

Columns and labels:
Assay in all cases: Kinase profiling
Type in all cases: binding
Conditions in all cases: read-out: % Ctrl @ 1000 nM
[1] = target: EPHB3 (Homo sapiens, UniProt P54753)
[2] = target: TRPM6 (Homo sapiens, UniProt Q9BX84)
[3] = target: ZAK (Homo sapiens, UniProt Q9NYL2)
[4] = target: PRKD3 (Homo sapiens, UniProt O94806)
[5] = target: EPHB6 (Homo sapiens, UniProt O15197)
[6] = target: T1, MEK4 (Homo sapiens, UniProt P45985)
T1 construct: T7 phage fusion (stated for most kinases of the panel only); made in house; host or cells: T7 phage in E. coli (BL21-derived) or HEK-293 cells

[7] = target: PFTK1 (Homo sapiens, UniProt O94921)
[8] = target: DCAMKL3 (Homo sapiens, UniProt Q9C098)
[9] = target: EGFR (E746-A750del) (Homo sapiens, UniProt P00533, DEL746-750)
[10] = target: DMPK (Homo sapiens, UniProt Q09013)
[11] = target: ABL1-nonphosphorylated (Homo sapiens, UniProt P00519)
[12] = target: SRPK3 (Homo sapiens, UniProt Q9UPE1)
[13] = target: PIP5K2B (Homo sapiens, UniProt P78356)
[14] = target: RIPK2 (Homo sapiens, UniProt O43353)
[15] = target: RSK4 (Kin.Dom.2-C-terminal) (Homo sapiens, UniProt Q9UK32)
[16] = target: LRRK2 (Homo sapiens, UniProt Q5S007)
[17] = target: T2, NEK4 (Homo sapiens, UniProt P51957)
T2 construct: T7 phage fusion (said for most assays); made in house

[18] = target: CDK8 (Homo sapiens, UniProt P49336)
[19] = target: T3, NEK10 (Homo sapiens, UniProt Q6ZWH5)
T3 construct: T7 phage fusion (said for most assays); made in house

[20] = target: T4, MLK2 (Homo sapiens, UniProt Q02779)
T4 construct: T7 phage fusion (stated for most kinases of the panel only); made in house; host or cells: T7 phage in E. coli (BL21-derived) or HEK-293 cells

[21] = target: EPHA8 (Homo sapiens, UniProt P29322)
[22] = target: DYRK2 (Homo sapiens, UniProt Q92630)
[23] = target: AKT3 (Homo sapiens, UniProt Q9Y243)
[24] = target: GCN2 (Kin.Dom.2, S808G) (Homo sapiens, UniProt Q9P2K8, S808G)
[25] = target: SLK (Homo sapiens, UniProt Q9H2G2)
[26] = target: CDKL2 (Homo sapiens, UniProt Q92772)
[27] = target: MAP3K1 (Homo sapiens, UniProt Q13233)
[28] = target: RIOK1 (Homo sapiens, UniProt Q9BRS2)
[29] = target: IKK-alpha (Homo sapiens, UniProt O15111)
[30] = target: T5, MST3 (Homo sapiens, UniProt Q9Y6E0)
T5 construct: T7 phage fusion (said for most assays); made in house

[31] = target: T6, MST1R (Homo sapiens, UniProt Q04912)
T6 construct: T7 phage fusion (stated for most kinases of the panel only); made in house; host or cells: T7 phage in E. coli (BL21-derived) or HEK-293 cells

[32] = target: MAP4K5 (Homo sapiens, UniProt Q9Y4K4)
[33] = target: ABL1 (H396P)-nonphosphorylated (Homo sapiens, UniProt P00519, H396P)
[34] = target: PLK3 (Homo sapiens, UniProt Q9H4B4)
[35] = target: AURKB (Homo sapiens, UniProt Q96GD4)
[36] = target: CSNK2A1 (Homo sapiens, UniProt P68400)
[37] = target: PIM2 (Homo sapiens, UniProt Q9P1W9)
[38] = target: T7, NEK3 (Homo sapiens, UniProt P51956)
T7 construct: T7 phage fusion (said for most assays); made in house

Chain of RSK4 (Kin.Dom.2-C-terminal) (Q9UK32 426-683 limits assumed): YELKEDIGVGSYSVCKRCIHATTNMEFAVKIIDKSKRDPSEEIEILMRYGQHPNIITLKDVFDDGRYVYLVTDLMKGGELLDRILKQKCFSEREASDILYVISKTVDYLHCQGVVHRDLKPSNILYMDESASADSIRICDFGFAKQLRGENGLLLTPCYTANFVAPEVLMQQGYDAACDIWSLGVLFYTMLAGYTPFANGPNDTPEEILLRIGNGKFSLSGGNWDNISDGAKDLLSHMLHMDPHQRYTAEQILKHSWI
Chain of PLK3 (Q9H4B4 whole entry): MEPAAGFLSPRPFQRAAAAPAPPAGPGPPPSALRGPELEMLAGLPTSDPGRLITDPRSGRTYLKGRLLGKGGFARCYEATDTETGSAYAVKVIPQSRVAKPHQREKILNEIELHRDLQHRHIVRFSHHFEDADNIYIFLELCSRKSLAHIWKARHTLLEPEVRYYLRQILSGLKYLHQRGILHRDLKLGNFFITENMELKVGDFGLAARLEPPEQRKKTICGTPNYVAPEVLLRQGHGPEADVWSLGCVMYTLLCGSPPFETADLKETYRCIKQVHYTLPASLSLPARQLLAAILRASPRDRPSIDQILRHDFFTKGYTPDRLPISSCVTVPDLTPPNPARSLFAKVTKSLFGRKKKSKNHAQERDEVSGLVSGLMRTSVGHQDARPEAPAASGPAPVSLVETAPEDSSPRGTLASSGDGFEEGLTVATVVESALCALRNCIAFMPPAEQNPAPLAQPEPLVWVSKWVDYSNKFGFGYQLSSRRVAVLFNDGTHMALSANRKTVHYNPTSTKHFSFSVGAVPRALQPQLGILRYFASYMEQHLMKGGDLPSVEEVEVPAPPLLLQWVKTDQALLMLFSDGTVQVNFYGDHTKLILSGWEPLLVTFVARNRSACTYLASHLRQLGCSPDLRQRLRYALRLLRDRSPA
Chain of EPHB6 (O15197 32-1021): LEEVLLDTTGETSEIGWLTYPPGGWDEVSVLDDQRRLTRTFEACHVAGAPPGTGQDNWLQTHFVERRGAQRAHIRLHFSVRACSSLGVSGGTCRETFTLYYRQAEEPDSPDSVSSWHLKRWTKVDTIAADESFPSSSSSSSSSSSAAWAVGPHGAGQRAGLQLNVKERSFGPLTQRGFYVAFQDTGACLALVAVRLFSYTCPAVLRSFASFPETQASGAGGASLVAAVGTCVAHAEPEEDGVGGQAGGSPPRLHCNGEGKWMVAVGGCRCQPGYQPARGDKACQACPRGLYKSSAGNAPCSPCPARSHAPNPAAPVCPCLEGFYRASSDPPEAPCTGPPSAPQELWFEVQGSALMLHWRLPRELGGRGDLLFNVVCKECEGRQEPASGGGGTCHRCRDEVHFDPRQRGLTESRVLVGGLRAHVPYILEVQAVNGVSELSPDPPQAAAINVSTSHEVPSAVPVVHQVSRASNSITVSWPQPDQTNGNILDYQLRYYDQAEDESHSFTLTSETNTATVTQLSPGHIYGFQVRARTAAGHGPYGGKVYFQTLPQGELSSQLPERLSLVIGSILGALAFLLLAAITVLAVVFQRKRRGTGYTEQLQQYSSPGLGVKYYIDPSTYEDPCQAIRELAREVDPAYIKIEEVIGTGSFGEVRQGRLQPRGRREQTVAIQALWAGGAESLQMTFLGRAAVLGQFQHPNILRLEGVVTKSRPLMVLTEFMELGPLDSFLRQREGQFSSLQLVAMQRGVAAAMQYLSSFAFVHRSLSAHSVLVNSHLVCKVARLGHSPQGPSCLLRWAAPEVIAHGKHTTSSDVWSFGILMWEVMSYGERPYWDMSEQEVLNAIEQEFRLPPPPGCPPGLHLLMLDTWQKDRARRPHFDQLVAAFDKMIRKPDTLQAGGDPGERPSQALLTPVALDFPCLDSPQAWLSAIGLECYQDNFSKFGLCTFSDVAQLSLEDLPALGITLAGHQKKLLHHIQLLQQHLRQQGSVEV
Chain of LRRK2 (Q5S007 whole entry): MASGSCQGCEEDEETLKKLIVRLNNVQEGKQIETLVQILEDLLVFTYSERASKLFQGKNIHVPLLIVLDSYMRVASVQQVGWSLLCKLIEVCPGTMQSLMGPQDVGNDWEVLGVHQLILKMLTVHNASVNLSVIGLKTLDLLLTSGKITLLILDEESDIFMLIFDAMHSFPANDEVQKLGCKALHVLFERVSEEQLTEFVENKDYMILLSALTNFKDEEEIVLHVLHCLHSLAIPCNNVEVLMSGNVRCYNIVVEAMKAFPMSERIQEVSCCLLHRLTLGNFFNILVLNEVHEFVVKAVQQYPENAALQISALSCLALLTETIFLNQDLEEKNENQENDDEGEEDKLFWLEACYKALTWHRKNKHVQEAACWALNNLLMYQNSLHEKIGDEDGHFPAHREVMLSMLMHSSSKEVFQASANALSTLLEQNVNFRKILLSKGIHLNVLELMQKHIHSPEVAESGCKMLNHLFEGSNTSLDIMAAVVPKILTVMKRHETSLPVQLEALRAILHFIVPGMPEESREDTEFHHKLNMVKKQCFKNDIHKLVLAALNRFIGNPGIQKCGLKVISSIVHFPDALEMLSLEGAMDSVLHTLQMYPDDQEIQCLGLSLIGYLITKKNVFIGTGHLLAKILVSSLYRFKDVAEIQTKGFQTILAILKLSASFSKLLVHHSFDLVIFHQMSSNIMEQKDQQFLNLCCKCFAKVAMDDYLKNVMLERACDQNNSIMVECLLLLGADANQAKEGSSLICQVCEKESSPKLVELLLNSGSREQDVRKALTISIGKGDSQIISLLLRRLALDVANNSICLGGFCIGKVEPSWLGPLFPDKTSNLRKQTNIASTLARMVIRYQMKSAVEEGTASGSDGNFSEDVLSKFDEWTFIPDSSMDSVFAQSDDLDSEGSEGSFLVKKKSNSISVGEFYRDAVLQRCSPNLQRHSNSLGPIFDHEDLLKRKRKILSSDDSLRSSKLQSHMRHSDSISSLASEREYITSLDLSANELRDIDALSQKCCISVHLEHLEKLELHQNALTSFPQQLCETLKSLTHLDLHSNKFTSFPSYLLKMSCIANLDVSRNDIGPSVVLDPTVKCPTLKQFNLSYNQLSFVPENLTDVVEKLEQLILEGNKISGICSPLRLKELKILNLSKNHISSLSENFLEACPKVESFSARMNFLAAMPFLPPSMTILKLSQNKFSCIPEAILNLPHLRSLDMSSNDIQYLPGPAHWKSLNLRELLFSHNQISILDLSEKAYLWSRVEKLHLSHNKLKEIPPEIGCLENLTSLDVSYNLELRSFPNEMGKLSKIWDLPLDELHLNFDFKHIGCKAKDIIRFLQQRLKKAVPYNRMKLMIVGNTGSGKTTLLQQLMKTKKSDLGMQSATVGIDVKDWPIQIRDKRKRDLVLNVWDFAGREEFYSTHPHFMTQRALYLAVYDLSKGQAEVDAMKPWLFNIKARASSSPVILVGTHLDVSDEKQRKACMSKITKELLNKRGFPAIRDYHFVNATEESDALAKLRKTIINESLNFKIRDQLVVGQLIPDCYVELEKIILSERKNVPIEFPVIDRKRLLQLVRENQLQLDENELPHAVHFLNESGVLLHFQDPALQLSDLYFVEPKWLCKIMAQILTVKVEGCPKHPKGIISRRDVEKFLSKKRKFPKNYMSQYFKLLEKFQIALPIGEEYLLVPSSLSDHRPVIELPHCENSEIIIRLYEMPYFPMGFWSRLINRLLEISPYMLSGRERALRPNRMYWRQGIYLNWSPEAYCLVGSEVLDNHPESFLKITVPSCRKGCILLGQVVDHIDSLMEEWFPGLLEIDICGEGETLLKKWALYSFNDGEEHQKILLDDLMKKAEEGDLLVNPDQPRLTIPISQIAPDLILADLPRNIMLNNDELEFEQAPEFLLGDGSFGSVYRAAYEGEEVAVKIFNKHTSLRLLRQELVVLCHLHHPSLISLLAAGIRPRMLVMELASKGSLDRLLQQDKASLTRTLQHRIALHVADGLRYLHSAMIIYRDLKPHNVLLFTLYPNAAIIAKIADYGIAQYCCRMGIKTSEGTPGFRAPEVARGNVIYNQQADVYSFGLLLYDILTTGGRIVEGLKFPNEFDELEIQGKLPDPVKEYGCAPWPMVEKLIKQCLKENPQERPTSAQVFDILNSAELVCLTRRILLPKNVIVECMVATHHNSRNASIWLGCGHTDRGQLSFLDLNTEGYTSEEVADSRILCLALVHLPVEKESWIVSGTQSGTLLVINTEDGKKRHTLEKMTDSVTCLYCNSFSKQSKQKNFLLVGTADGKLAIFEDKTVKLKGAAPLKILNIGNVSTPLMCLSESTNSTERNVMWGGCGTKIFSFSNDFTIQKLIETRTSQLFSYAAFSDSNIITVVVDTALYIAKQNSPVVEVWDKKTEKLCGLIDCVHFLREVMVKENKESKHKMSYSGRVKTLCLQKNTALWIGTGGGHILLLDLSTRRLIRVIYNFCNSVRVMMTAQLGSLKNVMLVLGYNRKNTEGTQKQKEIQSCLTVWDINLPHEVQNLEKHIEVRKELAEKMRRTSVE
Chain of DMPK (Q09013 whole entry): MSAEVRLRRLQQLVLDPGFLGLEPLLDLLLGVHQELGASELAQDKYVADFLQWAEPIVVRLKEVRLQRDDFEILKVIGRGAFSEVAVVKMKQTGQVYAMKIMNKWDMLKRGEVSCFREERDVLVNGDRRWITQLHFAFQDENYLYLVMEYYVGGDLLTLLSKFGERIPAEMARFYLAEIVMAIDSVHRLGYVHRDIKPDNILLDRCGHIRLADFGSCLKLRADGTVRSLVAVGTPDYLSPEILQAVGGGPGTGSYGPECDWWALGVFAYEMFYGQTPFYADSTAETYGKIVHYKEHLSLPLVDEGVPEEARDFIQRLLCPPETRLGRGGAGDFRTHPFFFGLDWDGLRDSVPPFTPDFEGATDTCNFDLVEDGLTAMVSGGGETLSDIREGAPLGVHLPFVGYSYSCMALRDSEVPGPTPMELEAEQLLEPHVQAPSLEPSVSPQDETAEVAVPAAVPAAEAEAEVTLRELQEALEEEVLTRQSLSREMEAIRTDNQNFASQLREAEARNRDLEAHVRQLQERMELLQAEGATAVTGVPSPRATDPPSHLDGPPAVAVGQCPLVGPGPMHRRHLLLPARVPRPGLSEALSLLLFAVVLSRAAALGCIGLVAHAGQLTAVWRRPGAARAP

With `Cc1cc(Oc2cc(NC(=O)C3CC3)ncn2)ccc1NC(=O)Nc1ccc(Cl)c(C(F)(F)F)c1` [CBT-102] as the compound, how does the remaining activity at 1 µM [1] read?
Its remaining activity at 1 µM is 82%.

And the remaining activity at 1 µM [2]?
Its remaining activity at 1 µM is 99%.

What about the remaining activity at 1 µM [3] of the same compound?
The remaining activity at 1 µM was 5.5%.

And the remaining activity at 1 µM [4]?
Its remaining activity at 1 µM is 91%.

And the remaining activity at 1 µM [5]?
The remaining activity at 1 µM was 14%.

What about the remaining activity at 1 µM [6] of the same compound?
Its remaining activity at 1 µM is 100%.

What about the remaining activity at 1 µM [7] of the same compound?
The remaining activity at 1 µM was 34%.

And the remaining activity at 1 µM [8]?
The remaining activity at 1 µM was 100%.

What about the remaining activity at 1 µM [9] of the same compound?
The remaining activity at 1 µM was 95%.

And the remaining activity at 1 µM [10]?
The remaining activity at 1 µM was 93%.

And the remaining activity at 1 µM [11]?
Its remaining activity at 1 µM is 3.3%.

What about the remaining activity at 1 µM [12] of the same compound?
Its remaining activity at 1 µM is 100%.

And the remaining activity at 1 µM [13]?
Its remaining activity at 1 µM is 99%.

What about the remaining activity at 1 µM [14] of the same compound?
Its remaining activity at 1 µM is 28%.

What about the remaining activity at 1 µM [15] of the same compound?
Its remaining activity at 1 µM is 73%.

What about the remaining activity at 1 µM [16] of the same compound?
Its remaining activity at 1 µM is 73%.

And the remaining activity at 1 µM [17]?
The remaining activity at 1 µM was 93%.

What about the remaining activity at 1 µM [18] of the same compound?
Its remaining activity at 1 µM is 14%.

And the remaining activity at 1 µM [19]?
The remaining activity at 1 µM was 77%.

What about the remaining activity at 1 µM [20] of the same compound?
The remaining activity at 1 µM was 99%.

And the remaining activity at 1 µM [21]?
Its remaining activity at 1 µM is 9.1%.

And the remaining activity at 1 µM [22]?
Its remaining activity at 1 µM is 89%.

What about the remaining activity at 1 µM [23] of the same compound?
Its remaining activity at 1 µM is 97%.

What about the remaining activity at 1 µM [24] of the same compound?
Its remaining activity at 1 µM is 100%.

And the remaining activity at 1 µM [25]?
Its remaining activity at 1 µM is 1.4%.

And the remaining activity at 1 µM [26]?
Its remaining activity at 1 µM is 0.45%.

And the remaining activity at 1 µM [27]?
Its remaining activity at 1 µM is 83%.

And the remaining activity at 1 µM [28]?
The remaining activity at 1 µM was 54%.

And the remaining activity at 1 µM [29]?
The remaining activity at 1 µM was 93%.

What about the remaining activity at 1 µM [30] of the same compound?
The remaining activity at 1 µM was 89%.

What about the remaining activity at 1 µM [31] of the same compound?
The remaining activity at 1 µM was 89%.

And the remaining activity at 1 µM [32]?
Its remaining activity at 1 µM is 2.2%.

What about the remaining activity at 1 µM [33] of the same compound?
The remaining activity at 1 µM was 20%.

And the remaining activity at 1 µM [34]?
Its remaining activity at 1 µM is 97%.

What about the remaining activity at 1 µM [35] of the same compound?
The remaining activity at 1 µM was 49%.

And the remaining activity at 1 µM [36]?
The remaining activity at 1 µM was 100%.

What about the remaining activity at 1 µM [37] of the same compound?
The remaining activity at 1 µM was 100%.

What about the remaining activity at 1 µM [38] of the same compound?
The remaining activity at 1 µM was 100%.
